12 compounds from patent publication US4382094A, “Reduced naphthalenes, their preparation and use” (Beecham Group Limited, priority 1980, dated 1983) can be followed below.

SMILES strings stand for the structures.

This experiment has as its system ear, irritant solution of 1% croton oil. Description: topical anti-inflammatory activity, croton oil rat ear model (Fregnan and Torsello). The class given is in vivo, Rats, Charles River Wistar Strain, female. Particulars: 6 hours. The procedure:
Compounds were tested for anti-inflammatory activity in a topical model based on that described by Fregnan G. B. and Torsello, A. L. (1975), Current Therapeutic Research 17, No. 4, 375-381. In outline the method is as follows:
Rats, Charles River Wistar Strain, female, 10/group. Weight range 200-240 g.
Irritant solution applied consists of 1% croton oil in tetrahydrofuran. 0.05 ml is placed on each ear, compound being included in the irritant solution on one ear. 6 hours later the ears are removed by cutting along the hairline and weighed.
-ve controls--no irritant solution.
+ve controls--irritant solution on both ears.

Where [1] appears, read: 3.0 mg/ear on the other (treated) ear.
[2] abbreviates: Rattus norvegicus, 2 mg/ear, topical, compound in irritant solution, read-out: Treated Ear % inhibition.
The mark [3] stands for this setting: Rattus norvegicus, topical, compound in irritant solution, read-out: Treated Ear % inhibition.

For the compound `CC12CCC(=O)C=C1CCC(=Cc1ccccc1)C2=O` (stereo not drawn) [Compound 1, 2-Benzylidene-3,4,8,8a-tetrahydro-8a-methyl-1,6(2H,7H)-naphthalenedione], under setting [1], the “Non-Treated Ear % inhibition” value is on record as -1% and the “Non-Treated Ear wt.” value is listed as 136.5 ± 5.80 mg. For the same compound, the inhibition in vivo at 3 mg/ear (Rattus norvegicus, 3.0 mg/ear, topical, compound in irritant solution, read-out: Treated Ear % inhibition) was found to be 70%.

On to `CC12CCC(=O)C=C1CCC(=Cc1cccs1)C2=O` (stereo not drawn) [Compound 2, 2-(2-Thienylmethylidene)-3,4,8,8a-tetrahydro-8a-methyl-1,6(2H,7H)-naphthalenedione], for which the inhibition in vivo at 2 mg/ear under setting [2] came to 71%.

In the case of `CC12CCC(=O)C=C1CCC(=Cc1ccc(Cl)cc1)C2=O` (stereo not drawn) [Compound 3, 2-(4-Chlorobenzylidene)-3,4,8,8a-tetrahydro-8a-methyl-1,6-(2H,7H)-naphthalenedione], the inhibition in vivo at 2 mg/ear under setting [2] turned out to be 63%.

As to `CC12CCC(=O)C=C1CCC(=Cc1ccco1)C2=O` (stereo not drawn) [Compound 4, 2-(2-Furylmethylidene)-3,4,8,8a-tetrahydro-8a-methyl-1,6(2H,7H)-naphthalenedione], the inhibition in vivo at 2 mg/ear under setting [2] came to 44%.

Consider `CC12CCC(=O)C=C1CCC(=Cc1cccc(Cl)c1)C2=O` (stereo not drawn) [Compound 5, 2-(3-Chlorobenzylidene)-3,4,8,8a-tetrahydro-8a-methyl-1,6-(2H,7H)-naphthalenedione], for which the inhibition in vivo at 2 mg/ear under setting [2] turned out to be 41%.

Regarding `CC12CCC(=O)C=C1CCC(=Cc1ccc(C#N)cc1)C2=O` (stereo not drawn) [Compound 6, 4-[(3,4,8,8a-Tetrahydro-8a-methyl-1,6-dioxo(2H,7H)-naphthalen-2-yl)methylidene]benzonitrile], the “Treated Ear wt.” value (2 mg/ear, topical, * p<0.05 vs control (Students t test)) is 87.2 mg. Further, the inhibition in vivo at 2 mg/ear under setting [2] came out at 53%.

For the compound `CC12CCC(=O)C=C1CCC(=Cc1ccc([N+](=O)[O-])cc1)C2=O` (stereo not drawn) [Compound 7, 4-[(3,4,8,8a-Tetrahydro-8a-methyl-1,6-dioxo(2H,7H)-naphthalen-2-yl)methylidene]nitrobenzene], under setting [2], the inhibition in vivo at 2 mg/ear was 81%.

Regarding `CN(C)c1ccc(C=C2CCC3=CC(=O)CCC3(C)C2=O)cc1` (stereo not drawn) [Compound 8, 2-(4-Dimethylaminobenzylidene)-3,4,8,8a-tetrahydro-8a-methyl-1,6(2H,7H)-naphthalenedione], the inhibition in vivo at 1.5 mg/ear under setting [3] stood at 99%.

For the compound `CC12CCC(=O)C=C1CCC(=Cc1ccc3c(c1)OCO3)C2=O` (stereo not drawn) [Compound 9, 2-(3,4-Methylenedioxybenzylidene)-3,4,8,8,a-tetrahydro-8a-methyl-1,6(2H,7H)-naphthalenedione], the inhibition in vivo at 2 mg/ear under setting [2] amounted to 100%.

With `CC12CCC(=O)C=C1CCC(=Cc1cccc(O)c1)C2=O` (stereo not drawn) [Compound 10, 2-(3-Hydroxybenzylidene)3,4,8,8a-tetrahydro-8a-methyl-1,6(2H,7H)-naphthalenedione], the inhibition in vivo at 2 mg/ear under setting [2] turned out to be 98%.

Consider `COc1ccc(C=C2CCC3=CC(=O)CCC3(C)C2=O)cc1` (stereo not drawn) [Compound 11, 2-(4-Methoxybenzylidene)-3,4,8,8a-tetrahydro-8a-methyl-1,6(2H,7H)-naphthalenedione], for which the inhibition in vivo at 2 mg/ear under setting [2] was 95%.

For the compound `CC12CCC(=O)C=C1CCC(=Cc1ccccc1)C2O` (stereo not drawn) [Compound 14, 6-Benzylidene-4,4a,5,6,7,8-hexahydro-5-hydroxy-4a-methyl-2(3H)-naphthalenon], the inhibition in vivo at 1.5 mg/ear under setting [3] is 107%.
